BindingDB's records for doi:10.1021/jm00099a007 (Merck Research Laboratories, 1992)

Biological target: T1, Gag-Pol polyprotein [588-1027]/[588-1147] (Human immunodeficiency virus 1, UniProt P04585)
T1 construct: 588-1027; 588-1147
Test: HIV-1 RT Assay

Work on `O=c1[nH]c2ccccc2cc1NCc1ccc2ccccc2c1` [3-[(naphthalen-2-ylmethyl)amino]-1,2-dihydroquinolin-2-one] yielded an IC50 greater than 300 µM.
